Source: US5985589A, “Lipid kinase” (ICOS Corporation, priority 1999, dated 1999)

System: p110δ
Assay: PI 3-kinase activity of immunoprecipitated FLAG-tagged p110δ (lipid kinase assay, TLC/autoradiography)
Format: biochemical, human
Details: at 100 nM wortmannin; p110δ immunoprecipitated from transfected COS cells
Description: The FLAG-tagged p110δ was expressed by transfecting pCDNA3:p110δFLAG into COS cells using DEAE dextran. Three days after transfection, expression of p110δ was determined by immunoprecipitations and western blotting using the M2 monoclonal antibody (Kodak Scientific Imaging Systems) according to the manufacturer's instructions. PI 3-kinase activity was determined as described [Hu et al., Mol. Cell. Biol., 13:7677-7688 (1993)].
To determine the PI 3-kinase activity of p110δ, 5μl of immunoprecipitated p110δ was mixed with 1 μl of PI/EGTA and incubated at room temperature for 10 minutes [PI/EGTA is 10 mg/ml PI(Sigma) in CHCl3, which has been dried under a vacuum, resuspended in 20 mg/ml DMSO in the presence or absence of various concentrations of the PI3 kinase inhibitor wortmannin and diluted 1:10 in 5 mM EGTA] and added to 1 μl 10× HM buffer (200 mM HEPES pH7.2, 50 mM MnCl2), 0.5 μl γ^32 PATP (10 mCi/ml-300 Ci/mmol), 1 μl 100 μM ATP, and 1.5 μl H2 O and incubated at 30° C. for 15 minutes. The reactions were terminated by addition of 100μl 1M HCl. Lipids were extracted with 200 μl CHCl3 /MeOH (1:1) by vortexing for 1 minute followed by centrifugation at 16,000×g for 2 minutes at room temperature. The lipids were further extracted with 80 μl 1M HCl/MeOH (1:1) by vortexing for 1 minutes, followed by centrifugation at 16,000×g for 2 minutes at room temperature. […]

Structure (SMILES): COC[C@H]1OC(=O)c2coc3c2[C@@]1(C)C1=C(C3=O)[C@@H]2CCC(=O)[C@@]2(C)C[C@H]1OC(C)=O [wortmannin]
- inhibition of PI 3-kinase activity (generation of phosphorylated lipids): approximately 50%
